Test results: US11149277B2, “Method of producing enriched exosomes” (National Health Research Institutes, priority 2016, dated 2021)

Tested on: mesenchymal stem cells (MSCs)
Test: EV/exosome release from mesenchymal stem cells
Assay type: cell-based
Settings: GW for 8 days
Excerpt: FIG. 10 includes blots and a graph. (A) is a graph showing vesicle number analysis of GW-treated mesenchymal stem cells (MSCs) P4 fractions. The CM-P4 GW-treated MSCs were collected and subjected to NanoSight Nanoparticle Tracking Analysis (NTA). Quantification of EV/exosome release is shown as the ratio of [vesicle number]/[cell number]. Data are means±SEM (n=3). ***P≤0.001. (B) is a set of blots showing the protein contents measured in the EV/exosome fraction released by MSCs treated with vehicle DMSO (MSC) or EP4 antagonists (MSCGW). The culture media (D1-4: conditioned medium from day 1 to day 4; D5-8: conditioned medium from day 5 to day 8) were collected from MSCs treated with vehicle (MSC), or GW (MSCGW) for 8 days. (C) is a set of blots showing the protein contents measured in the EV/exosome fraction released by neural stem cells (NSCs) treated with vehicle DMSO or EP4 antagonists. […]
(A) Vesicle number of GW-treated MSC P4 fractions was analyzed. […] (B) Proteins were measured in the EV/exosome fraction released by MSCs treated with vehicle DMSO, EP4 antagonists (GW), or EP4 agonist PGE2. […] (C) Cytokines were measured in the EV/exosome fraction released by MSCs treated with DMSO (MSC) or EP4 antagonist (MSCGW). […] EV/exosome cytokines released by the same number of MSCs were measured using cytokine arrays (C) and Bio-plex (D; IL-10). […]

CCOc1c2c(c(OCC)c3ccccc13)C(=O)N(c1ccc(CC(=O)NS(=O)(=O)c3ccccc3)cc1)C2 [GW627368X]
release of EVs/exosomes from MSCs: increased the release of EVs/exosomes
